{"source": "patent EP0314302A2", "about": "“Herbicidal o-carbomethoxy-sulfonylureas” (E.I. DU PONT DE NEMOURS AND COMPANY, priority 1987, dated 1989)", "key": {"Russian thistle": {"tested_on": "Russian thistle", "experiment": "Test 7 postemergence", "format": "in vivo, Salsola spp", "settings": "scale 0-100", "protocol": "(§1) Individual 11.4-cm plastic pots filled with planting medium were seeded with rape, wild radish (Raphanus raphanistruna). tansy mustard (Descurainia pinnata), ball mustard (Neslia paniculata), black mustard (Brassica nigra), yellow mustard, brown mustard, lentils, safflower, flax, sunflower, peanut, vetch, alfalfa, field bean, pea, violet (Viola spp), Kochia (Kochia spp), Russian thistle (Salsola spp), Matricaria spp, groundsel (Senecio spp), shepherdspurse (Capsella bursa-pastoris), nightshade (Solanum spp), sowthistle (Sonchus spp), sugar beet, wheat, \"Bonanza\" barley and \"Morex\" barley, Kentucky bluegrass (Poa pratensis), red clover (Trifolium pratense), dandelion (Taraxacum spp) and buckhorn plantain (Plantago lanceolata).\n(§2) Plants were treated postemergence with the compound formulated with a non-phytotoxic carrier. Plants were visually rated 18 days after treatment (DAT). Response ratings were based on the scale of 0 to 100 where 0 = no effect, 20 = minimal injury and 100 = complete control."}, "Large Crabgrass": {"tested_on": "Large Crabgrass", "experiment": "Test 5 sugarcane injury and weed control, postemergence", "format": "in vivo, Digitaria sanguinalis", "settings": "scale 0-100", "protocol": "(§3) Sugarcane (Saccharum spp.) cuttings which had been pre-sprouted were planted in 15-cm plastic pots. Narrowleaf panicum (Panicum maximum), large crabgrass (Digitaria sanguinalis), guineagrass (P. maximum) and itchgrass (Rottboellia exaltata) were seeded in individual 15-cm plastic pots.\n(§4) The pots were treated postemergence when the plants had 3 to 4 leaves with 2 to 3 tillers with Compound I formulated in a non-phytotoxic carrier made up of acetone-humectant-water-surfactant (22:1:1:0.05 v/v). The degree of crop injury and weed control was visually rated 27 days after treatment (DAT). Plant injury ratings are based on the scale of 0 to 100 where 0 = no effect, 20 = minimal injury and 100 = complete control."}, "Guinea Grass": {"tested_on": "Guinea Grass", "experiment": "Test 5 sugarcane injury and weed control, postemergence", "format": "in vivo, P. maximum", "settings": "scale 0-100", "protocol": "as §3, §4"}, "Matricaria": {"tested_on": "Matricaria", "experiment": "Test 7 postemergence", "format": "in vivo, Matricaria spp", "settings": "scale 0-100", "protocol": "as §1, §2"}, "Coffee": {"tested_on": "Coffee", "experiment": "Test 9 postemergence", "format": "in vivo", "settings": "scale 0-100", "protocol": "Plastic windowsill pots containing planting medium were seeded with bahiagrass, bindweed (Convolvulus spp), guinea grass (Panicum maximum), large crabgrass (Digitaria sanguinalis) and pigweed (Amaranthus spp). Individual 15-cm plastic pots contained sandbur (Cenchrus echinatus), Mikania cordata, Boston fern (Nephrolepis exalata), quackgrass (Agropyron repens), elephantgrass (Pennisetum purpureum) and sowthistle (Sonchus spp) plants.\nPlants were treated postemergence with Compound I formulated in a non-phytotoxic solvent. Plants were visually rated 22 days after treatment (DAT). Injury and weed control ratings were based on the scale of 0 to 100 where 0 = no effect, 20 = minimal control and 100 = complete control."}, "Wild buckwheat": {"tested_on": "Wild buckwheat", "experiment": "Test 10 postemergence safety to crops and weed control", "format": "in vivo, Polygonum convolvulus", "settings": "16 g/ha, scale 0-100", "protocol": "The object of these tests was to evaluate the compound of this invention for postemergence safety to crops and weed control. Seedling and budded Macedine grapes were grown in 11.4-cm pots. Flax, green foxtail (Setaria viridis), \"Morex\" barley, wild oats (Avena fatua), \"Era\" wheat, annual ryegrass (Lolium multiflorum), wild radish (Raphanus raphanistrum), rape, sunflower, chickweed (Stellaria media) and wild buckwheat (Polygonum convolvulus) were seeded in windowsill pots.\nThe plants were sprayed postemergence with Compound I in a non-phytotoxic solvent. Plants were visually rated 15 and 27 days after treatment (DAT). Injury and weed control ratings were based on the scale of 0 to 100 where 0 = no effect, 20 minimal control and 100 = complete control."}, "Lalang": {"tested_on": "Lalang", "experiment": "Test 4 plantation crop weeds, postemergence", "format": "in vivo, Imparata cylindrica", "settings": "Table 8, scale 0-100", "source_text": "The object of this test was to evaluate the efficacy of the compound of this invention on weeds that infest some plantation crops at different growth stages of the weeds. Asystasia intrusa, Mikania cordata, goldenrod Solidago spp, Boston fern Nephrolepis exalata, and lalang Imparata cylindrica were planted in 15-cm plastic pots. Plants were sprayed postemergence with Compound I in a non-phytotoxic solvent. The Asystasia plants ranged in growth from 4 leaves to 9 leaves and very branched, Mikania had 6 leaves to vining, the goldenrod was branching and the Boston fern was growing vigorously. The degree of weed control was visually rated 20 to 24 days after treatment (DAT). Control ratings are based on the scale of 0 to 100 where 0 = no effect, 20 = minimal control and 100 = complete control. Variations in the results of the tests could be due to the fact that the tests were run at different times of the year or due to the stage of growth of the weeds."}, "Trumpetcreeper": {"tested_on": "Trumpetcreeper", "experiment": "Test 12 over-the-top application, postemergence", "format": "in vivo, Campsis radicans", "settings": "26 days after treatment, scale 0-100", "source_text": "The object of this test was to evaluate the safety of sour lemon to the over-the-top application of Compound I and control of lantana (Lantana camara) and trumpetcreeper (Campsis radicans). Plants were sprayed postemergence with Compound I formulated in a non-phytotoxic solvent. Treated plants were visually rated 26 days after treatment and compared with appropriate controls. Injury ratings were based on the scale of 0 to 100, where 0 indicates no effect, 20 indicates minimal effect and 100 indicates complete control."}, "Black mustard": {"tested_on": "Black mustard", "experiment": "Test 7 postemergence", "format": "in vivo, Brassica nigra", "settings": "scale 0-100", "protocol": "as §1, §2"}, "Kentucky bluegrass": {"tested_on": "Kentucky bluegrass", "experiment": "Test 7 postemergence", "format": "in vivo, Poa pratensis", "settings": "scale 0-100", "protocol": "as §1, §2"}, "Bindweed": {"tested_on": "Bindweed", "experiment": "Test 11 citrus pots, postemergence to the weeds", "format": "in vivo, Convolvulus spp.", "settings": "Postemergence 32 g/ha, 0.25% X-77 surfactant, scale 0-100", "protocol": "Budded citrus seedlings were planted in 30-liter plastic pots which were also seeded with sandbur, guineagrass, narrowleaf panicum, common ragweed, yellow nutsedge, purple nutsedge and bindweed. Compound I was applied preemergence and postemergence to the weeds. Treatments were sprayed to simulate the trunk-to-trunk herbicide application method used in some citrus groves. The compound was also applied postemergence to weeds grown in windowsill flats. The flats were filled with planting medium and seeded with morningglory (Ipomoea spp.). purple nutsedge (Cyperus rotundus), pigweed (Amaranthus spp.), bindweed (Convolvulus spp.), narrowleaf panicum (Panicum maximum), common ragweed (Ambrosia artemisiifolia), sandbur (Cenchrus echinatus), itchgrass (Rottboellia exaltata), johnsongrass (Sorghum halepense), guineagrass (Panicum maximum), smooth crabgrass (Digitaria ischaemum), broadleaf signalgrass (Brachiaria platyphylla), bermudagrass (Cynodon dactylon), goosegrass (Eleusine indica), large crabgrass (Digitaria sanguinalis) and yellow nutsedge (Cyperus esculentus).\nThe compound was formulated and sprayed with 0.25% X-77 surfactant in water. Plants were visually rated 21 and 29 days after treatment and compared with appropriate controls. Injury ratings were based on the scale of 0 to 100, where 0 indicates no effect, 20 indicates minimum effect and 100 indicates complete control. […]"}}, "data": [{"smiles": "COC(=O)c1cccnc1S(=O)(=O)NC(=O)Nc1nc(OC)cc(OC)n1", "note": "[Compound I, 2-[[(4,6-dimethoxypyrimidin-2-yl)aminocarbonyl]aminosulfonyl]-3-pyridinecarboxylic acid, methyl ester]", "values": [{"measurement": "Plant Injury Rating 18 DAT", "setting": "Russian thistle; 16 g/ha", "value": 100}, {"measurement": "Plant Injury Rating 18 DAT", "setting": "Russian thistle; 32 g/ha", "value": 100}, {"measurement": "Plant Injury Rating 27 DAT", "setting": "Large Crabgrass; 8 g/ha", "value": 30}, {"measurement": "Plant Injury Rating 27 DAT", "setting": "Large Crabgrass; 16 g/ha", "value": 60}, {"measurement": "Plant Injury Rating 27 DAT", "setting": "Large Crabgrass; 32 g/ha", "value": 80}, {"measurement": "Plant Injury Rating 27 DAT", "setting": "Large Crabgrass; 64 g/ha", "value": 100}, {"measurement": "Plant Injury Rating 27 DAT", "setting": "Guinea Grass; 8 g/ha", "value": 30}, {"measurement": "Plant Injury Rating 27 DAT", "setting": "Guinea Grass; 16 g/ha", "value": 70}, {"measurement": "Plant Injury Rating 27 DAT", "setting": "Guinea Grass; 32 g/ha", "value": 80}, {"measurement": "Plant Injury Rating 27 DAT", "setting": "Guinea Grass; 64 g/ha", "value": 100}, {"measurement": "Plant Injury Rating 18 DAT", "setting": "Matricaria; 16 g/ha", "value": 100}, {"measurement": "Plant Injury Rating 18 DAT", "setting": "Matricaria; 32 g/ha", "value": 100}, {"measurement": "Plant Injury Rating 22 DAT", "setting": "Coffee; 8 g/ha", "value": 0}, {"measurement": "Plant Injury Rating 22 DAT", "setting": "Coffee; 16 g/ha", "value": 0}, {"measurement": "Plant Injury Rating 22 DAT", "setting": "Coffee; 32 g/ha", "value": 0}, {"measurement": "Plant Injury Rating 15 DAT", "setting": "Wild buckwheat", "value": 100}, {"measurement": "Control Rating 22 DAT", "setting": "Lalang; 16 g/ha", "value": 20}, {"measurement": "Control Rating 22 DAT", "setting": "Lalang; 32 g/ha", "value": 20}, {"measurement": "Control Rating 22 DAT", "setting": "Lalang; 64 g/ha", "value": 40}, {"measurement": "Injury ratings", "setting": "Trumpetcreeper; 8 g/ha", "value": 0}, {"measurement": "Injury ratings", "setting": "Trumpetcreeper; 16 g/ha", "value": 20}, {"measurement": "Injury ratings", "setting": "Trumpetcreeper; 32 g/ha", "value": 40}, {"measurement": "Plant Injury Rating 18 DAT", "setting": "Black mustard; 16 g/ha", "value": 100}, {"measurement": "Plant Injury Rating 18 DAT", "setting": "Black mustard; 32 g/ha", "value": 100}, {"measurement": "Plant Injury Rating 18 DAT", "setting": "Kentucky bluegrass; 16 g/ha", "value": 100}, {"measurement": "Plant Injury Rating 18 DAT", "setting": "Kentucky bluegrass; 32 g/ha", "value": 100}, {"measurement": "Injury ratings", "setting": "Bindweed", "value": 100}]}]}
